In article PMC10301603, “Potent and Selective Benzothiazole-Based Antimitotics with Improved Water Solubility: Design, Synthesis, and Evaluation as Novel Anticancer Agents” (Pharmaceutics, 2023):
In brackets after ≈: the same amount, converted by molar mass. Read-outs that look alike come from different tables or passages of the source.

How the values were obtained:
HepG2 cells = test: Cell growth inhibition assay (MTT); type: cell-based, human; conditions: Homo sapiens, HepG2, 72 h after drug exposure
Protocol: (§1) The cell lines were obtained from ATTC (Manassas, VA, USA). HeLa (human cervix epithelioid carcinoma), MCF7 (human breast adenocarcinoma), HepG2 (human hepatocellular carcinoma), U87 MG (human glioblastoma), T98G (human glioblastoma), GL261 (murine glioma), LNCaP (human prostate cancer), PC-3 (human prostate cancer), and HEK-293 (human embryonic kidney) were grown in Dulbecco’s modified Eagle’s medium (DMEM, Gibco, Waltham, MA, USA), supplemented with 10% (v/v) heat-inactivated fetal bovine serum (HIFBS, Sigma-Aldrich, St. Louis, MO, USA)), 2 mM L-glutamine, 100 μg/mL streptomycin, and 100 units/mL penicillin (Gibco, Waltham, MA, USA) at 37 °C in saturated humidity atmosphere containing 95% air and 5% CO2. Cell line HT-29 (human colon carcinoma) was grown in Roswell Park Memorial Institute (RPMI) 1640 medium (Gibco, Whaltman, MA, USA) supplemented with 10% HIFBS, 100 μg/mL streptomycin, and 100 units/mL penicillin (Gibco, Whaltman, MA, USA) at 37 °C in humidified 95% air and 5% CO2 atmosphere. MycoAlert kit (Lonza, Norwest, Australia) was used to routinely check the presence of mycoplasma, and only mycoplasma-free cells were employed in the experiments.
(§2) Cells were plated in 96-well plates (100 µL/well) at the following concentrations: 30,000 cells/mL (HepG2, U87 MG, T98G, C6, LNCaP, PC3, and HT-29 cells) or 15,000 cells/mL (HeLa and MCF-7 cells). Previous experiments were performed to choose the optimal cell concentration (70–80% confluence) and avoid the formation of cell aggregates. Cells were incubated in complete DMEM or RPMI 1640 medium (see above) at 37 °C and 5% CO2 atmosphere for 24 h to allow for cell attachment to the plate. Then, every compound was added (10 µL/well) to a final concentration of 10 µM. Non-treated cells were used as negative controls. The antiproliferative activity of compounds was measured 72 h after the treatments using the MTT reagent (3-[4,5-dimethylthiazol-2-yl]-2,5-diphenyltetrazolium bromide), (MTT Thiazolyl Blue Tetrazolium Bromide, Sigma-Aldrich, St. Louis, MO, USA) dissolved in PBS at 5 mg/mL. Compounds showing antiproliferative effects at 10 µM were selected to determine their IC50 value. For that purpose, compounds were used at different concentrations ranging from 10^−10 to 10^−2 M. Measurements were performed in triplicate, and each experiment was repeated three times. The IC50 value was determined for every compound using Origin software (OriginLab, Washington, USA). To study the sensitivity to MDR efflux pumps of compounds, the IC50 values were determined by following the same procedure but in the presence of verapamil (final concentration of 10 µM).

MCF7 cells = test: Cell growth inhibition assay (MTT); type: cell-based, human; conditions: Homo sapiens, MCF7; MTT, 72 h after drug exposure
Protocol: as §1, §2

T98G cells = test: Cell growth inhibition assay (MTT); type: cell-based, human; conditions: Homo sapiens, T98G, 72 h after drug exposure
Protocol: as §1, §2

U87MG cells = test: Cell growth inhibition assay (MTT); type: cell-based, human; conditions: Homo sapiens, U-87 MG; MTT, 72 h after drug exposure
Protocol: as §1, §2

LNCaP cells = test: Cell growth inhibition assay (MTT); type: cell-based, human; conditions: Homo sapiens, LNCaP, 72 h after drug exposure
Protocol: as §1, §2

PC-3 cells = test: Cell growth inhibition assay (MTT); type: cell-based, human; conditions: Homo sapiens, PC-3, 72 h after drug exposure
Protocol: as §1, §2

HeLa cells = test: Cell growth inhibition assay (MTT); type: cell-based, human; conditions: Homo sapiens, HeLa, 72 h after drug exposure
Protocol: as §1, §2

HT-29 cells [1] = test: Cell growth inhibition assay (MTT); type: cell-based, human; conditions: Homo sapiens, HT-29, 72 h after drug exposure
Protocol: as §1, §2

HEK-293 cells = test: Cell growth inhibition assay (MTT), non-tumorigenic cells; type: cell-based, human; conditions: Homo sapiens, HEK293, 72 h after drug exposure, non-tumorigenic cell line
Protocol: as §1, §2

bovine brain tubulin = test: Tubulin polymerization inhibition (turbidimetry); type: biochemical; conditions: for IC50: concentration inhibiting 50% of microtubular protein polymerization in vitro, read-out: TPI IC50; for % TPI: compounds tested at 10 µM, with respect to the negative control; for Tubulin polymerization inhibition (in words): 10 µM
Protocol: Microtubular protein was isolated from calf brain following the modified Shelanski method, based on temperature-dependent assembly/disassembly of tubulin [45]. The protein was stored at −80 °C, and its concentration was determined using the Bradford method before each use. Tubulin polymerization, which occurs when heating a buffered tubulin sample from 4 °C to 37 °C, is accompanied by an increase in the absorbance (at 450 nm) of the sample that was monitored by a Helios α spectrophotometer. […] Then, the temperature was adjusted to 4 °C, and the temperature being shifted to 37 °C allowed for the assembly process of tubulin. The turbidity caused by tubulin polymerization was measured by the increased absorbance at 450 nm. The increase in absorbance obtained for the control sample (without the ligand), which we considered to be 100% tubulin polymerization (0% inhibition), compared with the increase in absorbance determined for the sample containing ligands yielded the degree of tubulin polymerization inhibition (TPI), which is expressed as a percentage value. For the compounds displaying TPI values over 50% at 10 µM, the IC50 value for TPI was calculated. Measurements were performed in triplicate in two independent experiments using microtubular protein from different preparations.

[2] = Aqueous solubility, shake-flask method; type: physicochemical; conditions: pH 7.0 buffer, pH 7, aqueous buffer, thermodynamic from solid, shaking flask, buffered media at pH 7.0, mean of three
Protocol: The aqueous solubility of compounds was measured in a Helios Alfa Spectrophotometer. Calibration lines at the maximum wavelength of absorbance were determined for each compound. Then, following the shake-flask method, a suspension of 5 mg of each compound in 500 µL in pH 7.0 buffer was stirred for 72 h at room temperature. The mixture was then filtrated over a […] filter to remove the insoluble fraction. The concentration of the compound in the resulting saturated solution was determined via UV absorbance measurement and interpolation in the calibration line. The aqueous solubility values are given as the average of three independent measurements.

tumor cell lines = test: Cell growth inhibition assay (MTT), summary statements over several cell lines; type: cell-based; conditions: read-out: antiproliferative IC50
Protocol: as §2

HT-29 cells [3] = test: Cell growth inhibition (MTT) in the presence of 10 µM verapamil (sensitivity to MDR efflux pumps); type: cell-based, human; conditions: 10 µM verapamil (P-gp/MDR1 inhibitor)
Protocol: as §2

GL261 cells = test: Cell growth inhibition assay (MTT); type: cell-based, murine; conditions: Mus musculus, GL261, 72 h after drug exposure
Protocol: as §1, §2

SMILES	IC50 (HepG2 cells) [µM]	IC50 (MCF7 cells) [µM]	IC50 (T98G cells) [µM]	IC50 (U87MG cells) [µM]	IC50 (LNCaP cells) [µM]	IC50 (PC-3 cells) [µM]	IC50 (HeLa cells) [µM]	IC50 (HT-29 cells [1]) [µM]	IC50 (HEK-293 cells) [µM]	IC50 (bovine brain tubulin) [µM]	solubility at 72 h [2] [µg/mL]	IC50 (tumor cell lines; HeLa, HepG2, MCF7, and U87MG) [µM]	IC50 (tumor cell lines; the rest of the tumor cell lines (other than HeLa, HepG2, MCF7, U87MG)) [µM]	IC50 (HT-29 cells [3]) [µM]	IC50 (GL261 cells) [µM]	IC50 (tumor cell lines; glioblastoma cell lines) [µM]	% TPI (bovine brain tubulin) [%]	IC50 (tumor cell lines; the rest of the cell lines (other than glioblastoma U87MG and GL261)) [µM]	Tubulin polymerization inhibition (in words) (bovine brain tubulin)
COc1ccc2nc(NCc3ccccn3)sc2c1 [Compound 1, 6-methoxy-N-(pyridin-2-ylmethyl)benzo[d]thiazol-2-amine]	2.4	1.53	2.4	1.61	1.52	2.11	1.78	3.51	> 10	> 10	48 (≈ 177 µM)	~1	2 to 3	3.47	2.17				
Cn1nnc2c(C(N)=O)ncn2c1=O [TMZ, temozolomide, reference compound]	> 10	> 10	241	135	> 10	> 10	> 10	> 10	> 10					> 10	179	> 100			
CCNC(=O)N(Cc1ccccn1)c1nc2ccc(OC)cc2s1 [Compound 7, 3-ethyl-1-(6-methoxybenzo[d]thiazol-2-yl)-1-(pyridin-2-ylmethyl)urea]	0.198	0.251	0.125	0.062	0.247	0.33	0.275	0.303	8.81	4.2	98 (≈ 286 µM)			0.315	0.096		87	0.1 to 0.3	
CCNC(=O)N(Cc1[nH]cnc1C)c1nc2ccc(OC)cc2s1 [Compound 10, 3-ethyl-1-(6-methoxybenzo[d]thiazol-2-yl)-1-((4-methyl-1H-imidazol-5-yl)methyl)-urea]	> 10	> 10	> 10	> 10	> 10	> 10	> 10	> 10	> 10	> 10	178 (≈ 515 µM)			> 10	> 10		0		not able to inhibit tubulin polymerization
COc1ccc2nc(NCc3[nH]cnc3C)sc2c1 [Compound 4, 6-methoxy-N-((4-methyl-1H-imidazol-5-yl)methyl)benzo[d]thiazol-2-amine]	> 10	> 10	> 10	> 10	> 10	> 10	9.33	> 10	> 10	> 10	86 (≈ 313 µM)			> 10	> 10		0		not able to inhibit tubulin polymerization
CCNC(=O)N(Cc1ccc2ccccc2c1)c1nc2ccc(OC)cc2s1 [Compound 12, 3-ethyl-1-(6-methoxybenzo[d]thiazol-2-yl)-1-(naphthalen-2-ylmethyl)urea]	> 10	> 10	> 10	> 10	> 10	> 10	> 10	> 10	> 10	> 10	< 9			> 10	> 10		0		not able to inhibit tubulin polymerization
COc1ccc2nc(N(C=O)Cc3[nH]cnc3C)sc2c1 [Compound 16, N-(6-methoxybenzo[d]thiazol-2-yl)-N-((4-methyl-1H-imidazol-5-yl)methyl)formamide]	> 10	> 10	> 10	> 10	> 10	> 10	> 10	> 10	> 10	> 10	165 (≈ 546 µM)			> 10	> 10		0		not able to inhibit tubulin polymerization
COc1ccc2nc(N(Cc3cccnc3)C(C)=O)sc2c1 [Compound 20, N-(6-methoxybenzo[d]thiazol-2-yl)-N-(pyridin-3-ylmethyl)acetamide]	0.813	0.911	0.825	0.632	1.39	1.62	1.03	1.52	9.9	8.1	93 (≈ 297 µM)			1.48	0.622		57		
COc1ccc2nc(N(C=O)Cc3ccc4ccccc4c3)sc2c1 [Compound 18, N-(6-methoxybenzo[d]thiazol-2-yl)-N-(naphthalen-2-ylmethyl)formamide]	> 10	> 10	> 10	> 10	> 10	> 10	> 10	> 10	> 10	> 10	< 9			> 10	> 10		0		not able to inhibit tubulin polymerization
